# Test results from US20240360178A1, “MACROCYCLIC IMMUNOMODULATORS” (Bristol-Myers Squibb Company, priority 2021, published 2024).
# Positions of bridges follow the written chain, without caps; N, C: chain ends. Non-standard residues stand in square brackets, D forms with d. Residues, ends and D or L forms follow the SMILES beside them. ξ: configuration not given here. *: point of attachment. Bip(2'-Me) = Cc1ccccc1-c1ccc(C[C@H](N)C(=O)O)cc1; Bip = N[C@@H](Cc1ccc(-c2ccccc2)cc1)C(=O)O; Phe(3-Me) = Cc1cccc(C[C@H](N)C(=O)O)c1; NMeF = CN[C@@H](Cc1ccccc1)C(=O)O; 4Pal = N[C@@H](Cc1ccncc1)C(=O)O; Cha = N[C@@H](CC1CCCCC1)C(=O)O; Carboxymethyl = O=C(O)C*; NMeA = CN[C@@H](C)C(=O)O; Nle = CCCC[C@H](N)C(=O)O; Orn = NCCC[C@H](N)C(=O)O; Dab = NCC[C@H](N)C(=O)O; Dap = NC[C@H](N)C(=O)O; ξV = CC(C)C(N)C(=O)O; Sar = CNCC(=O)O
# Target: T1, human PD-1 (Jurkat-PD-1 cells) / PE-labeled human PD-L1-Ig (Homo sapiens, UniProt Q15116)
# T1 construct: expressed in transfected cells; host or cells: Jurkat cell line over-expressing human PD-1
# Assay: Jurkat-PD-1 Cell Binding High-Content Screening Assay (CBA); Jurkat hPD1-PDL1 assay
# Conditions: Jurkat cell line over-expressing human PD-1; PE-labeled PD-L1-Ig 20 nM final; compound incubated 2 hours at 37° C.; read-out: Jurkat HPD1-PDL1 IC50
# Summary of the method: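 Jurkat-hPD-1 cells; cpd 2 h, 37° C; then PE-PD-L1-Ig 20 nM final in DMEM/10% FCS; high-content imaging read-out.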
# T1 sequence (Q15116 25-288): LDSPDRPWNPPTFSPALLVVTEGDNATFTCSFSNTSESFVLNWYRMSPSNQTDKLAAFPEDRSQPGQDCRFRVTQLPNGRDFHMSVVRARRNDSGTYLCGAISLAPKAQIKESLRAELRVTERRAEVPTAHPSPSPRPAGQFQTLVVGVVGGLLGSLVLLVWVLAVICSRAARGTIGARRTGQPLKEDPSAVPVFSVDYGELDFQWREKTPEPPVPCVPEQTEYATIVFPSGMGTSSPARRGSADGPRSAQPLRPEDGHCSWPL
row,IC50,SMILES
1,70 nM,CC(C)C1NC(=O)[C@H](Cc2c[nH]c3ccccc23)NC(=O)[C@H](CC(=O)O)NC(=O)[C@H](Cc2ccc(OCC(=O)O)cc2)NC(=O)[C@H](CN)NC(=O)CSC[C@@H](C(=O)N[C@@H](C)C(N)=O)NC(=O)[C@H]([C@@H](C)O)NC(=O)[C@H](C(C)C)NC(=O)[C@H](CC2CCCCC2)NC(=O)[C@H](CCN)NC(=O)[C@H](Cc2ccccc2)N(C)C(=O)[C@H](CCCN)NC(=O)[C@H](CCC(=O)O)NC(=O)[C@H](Cc2ccc(-c3ccccc3)cc2)NC1=O (stereo partly shown) [Example 1442] ({CH2CO}-[Dap]Y(Carboxymethyl)DW[ξV][Bip]E[Orn][NMeF][Dab][Cha]VTCA-NH2; thioether N-14)
2,150 nM,CC(C)C[C@@H]1NC(=O)[C@H](CCN)NC(=O)[C@H](Cc2ccccc2)N(C)C(=O)[C@H](C)N(C)C(=O)[C@H](CCCNC(=N)N)NC(=O)[C@H](Cc2ccc(-c3ccccc3)cc2)NC(=O)[C@H](C(C)C)NC(=O)[C@H](Cc2c[nH]c3ccccc23)NC(=O)[C@H](CC(=O)O)NC(=O)[C@H](Cc2ccc(O)cc2)NC(=O)[C@H](CCC(N)=O)NC(=O)CSC[C@@H](C(=O)N[C@@H](C)C(N)=O)NC(=O)[C@H]([C@@H](C)O)NC(=O)[C@H](C(C)C)NC1=O [Example 1326] ({CH2CO}-QYDWV[Bip]R[NMeA][NMeF][Dab]LVTCA-NH2; thioether N-14)
3,90 nM,CC(C)C[C@@H]1NC(=O)[C@H](CCN)NC(=O)[C@H](Cc2ccccc2)N(C)C(=O)[C@H](C)N(C)C(=O)[C@H](CCCNC(=N)N)NC(=O)[C@H](Cc2ccc(-c3ccccc3)cc2)NC(=O)[C@H](C(C)C)NC(=O)[C@H](Cc2c[nH]c3ccccc23)NC(=O)[C@H](CC(=O)O)NC(=O)[C@H](Cc2ccc(O)cc2)NC(=O)[C@H](Cc2cnc[nH]2)NC(=O)CSC[C@@H](C(=O)NCC(N)=O)NC(=O)[C@H](CO)NC(=O)[C@H](C(C)C)NC1=O [Example 1314] ({CH2CO}-HYDWV[Bip]R[NMeA][NMeF][Dab]LVSCG-NH2; thioether N-14)
4,480 nM,CC(C)C[C@@H]1NC(=O)[C@H](Cc2c[nH]c3ccccc23)NC(=O)[C@H](CC(=O)O)NC(=O)[C@H](Cc2ccc(O)cc2)NC(=O)[C@H](Cc2ccccc2)NC(=O)CSC[C@@H](C(=O)N[C@@H](C)C(N)=O)NC(=O)[C@H]([C@@H](C)O)NC(=O)[C@H](C(C)C)NC(=O)[C@H](CC(C)C)NC(=O)[C@H](CC(N)=O)NC(=O)[C@H]2CCCN2C(=O)[C@H](CCN)NC(=O)[C@H](C(C)C)NC(=O)[C@H](Cc2ccc(-c3ccccc3)cc2)NC1=O [Example 1412] ({CH2CO}-FYDWL[Bip]V[Dab][dP]NLVTCA-NH2; thioether N-14)
5,570 nM,CC(C)C[C@@H]1NC(=O)[C@H](CCCCN)NC(=O)[C@H](Cc2ccccc2)N(C)C(=O)[C@H](C)N(C)C(=O)[C@H](CCCNC(=N)N)NC(=O)[C@H](Cc2ccc(-c3ccccc3)cc2)NC(=O)[C@H](C(C)C)NC(=O)[C@H](Cc2c[nH]c3ccccc23)NC(=O)[C@H](CC(=O)O)NC(=O)[C@H](Cc2ccc(O)cc2)NC(=O)[C@H](CC(N)=O)NC(=O)CSC[C@@H](C(=O)N[C@@H](CCC(=O)O)C(N)=O)NC(=O)[C@H]([C@@H](C)O)NC(=O)[C@H](C(C)C)NC1=O [Example 1360] ({CH2CO}-NYDWV[Bip]R[NMeA][NMeF]KLVTCE-NH2; thioether N-14)

# Further lines, the molecule ahead of its results:
row,SMILES,IC50
1,CC(C)C[C@@H]1NC(=O)[C@H](Cc2c[nH]c3ccccc23)NC(=O)[C@H](CC(=O)O)NC(=O)[C@H](Cc2ccc(O)cc2)NC(=O)[C@H](Cc2ccccc2)NC(=O)CSC[C@@H](C(=O)NCC(N)=O)NC(=O)[C@H](CCCNC(=N)N)NC(=O)[C@H](C(C)C)NC(=O)[C@H](CC(C)C)NC(=O)[C@H](CC(N)=O)NC(=O)CN(C)C(=O)[C@H](C)N(C)C(=O)[C@H](C(C)C)NC(=O)[C@H](Cc2ccc(-c3ccccc3)cc2)NC1=O [Example 1226] ({CH2CO}-FYDWL[Bip]V[NMeA][Sar]NLVRCG-NH2; thioether N-14),890 nM
2,CC(C)C[C@@H]1NC(=O)[C@H](CCCNC(=N)N)NC(=O)[C@H](Cc2ccccc2)N(C)C(=O)[C@H](C)N(C)C(=O)[C@H](CCCNC(=N)N)NC(=O)[C@H](Cc2ccc(-c3ccccc3)cc2)NC(=O)[C@H](C(C)C)NC(=O)[C@H](Cc2c[nH]c3ccccc23)NC(=O)[C@H](CC(=O)O)NC(=O)[C@H](Cc2ccc(O)cc2)NC(=O)[C@H](CCCCN)NC(=O)CSC[C@@H](C(=O)NCC(N)=O)NC(=O)[C@H](CO)NC(=O)[C@H](C(C)C)NC1=O [Example 1211] ({CH2CO}-KYDWV[Bip]R[NMeA][NMeF]RLVSCG-NH2; thioether N-14),650 nM
3,CCCC[C@@H]1NC(=O)[C@H](CC(N)=O)NC(=O)[C@H]2CCCN2C(=O)[C@H](C)N(C)C(=O)[C@H](C(C)C)NC(=O)[C@H](Cc2ccc(-c3ccccc3)cc2)NC(=O)[C@H](CC(C)C)NC(=O)[C@H](Cc2c[nH]c3ccccc23)NC(=O)[C@H](CC(=O)O)NC(=O)[C@H](Cc2ccc(O)cc2)NC(=O)[C@H](Cc2ccccc2)NC(=O)CSC[C@@H](C(=O)N[C@@H](C)C(N)=O)NC(=O)[C@H]([C@@H](C)O)NC(=O)[C@H](CCCNC(=N)N)NC1=O [Example 1121] ({CH2CO}-FYDWL[Bip]V[NMeA][dP]N[Nle]RTCA-NH2; thioether N-14),430 nM
4,CC(C)C[C@@H]1NC(=O)[C@H](CCCNC(=N)N)NC(=O)[C@H](Cc2ccccc2)N(C)C(=O)[C@H](C)N(C)C(=O)[C@H](C(C)C)NC(=O)[C@H](Cc2ccc(-c3ccccc3)cc2)NC(=O)[C@H](C(C)C)NC(=O)[C@H](Cc2c[nH]c3ccccc23)NC(=O)[C@H](CC(=O)O)NC(=O)[C@H](Cc2ccc(O)cc2)NC(=O)[C@H](Cc2ccccc2)NC(=O)CSC[C@@H](C(=O)NCC(N)=O)NC(=O)[C@H](CO)NC(=O)[C@H](C(C)C)NC1=O [Example 1206] ({CH2CO}-FYDWV[Bip]V[NMeA][NMeF]RLVSCG-NH2; thioether N-14),450 nM
5,Cc1ccccc1-c1ccc(C[C@@H]2NC(=O)[C@H](CC(C)C)NC(=O)[C@H](Cc3c[nH]c4ccccc34)NC(=O)[C@H](CC(=O)O)NC(=O)[C@H](Cc3ccc(O)cc3)NC(=O)[C@H](Cc3ccccc3)NC(=O)CSC[C@@H](C(=O)N[C@@H](C)C(N)=O)NC(=O)[C@H](CO)NC(=O)[C@H](C(C)C)NC(=O)[C@H](CC(C)C)NC(=O)[C@H](CC(N)=O)NC(=O)CN(C)C(=O)[C@H](C)N(C)C(=O)[C@H](C(C)C)NC2=O)cc1 [Example 1125] ({CH2CO}-FYDWL[Bip(2'-Me)]V[NMeA][Sar]NLVSCA-NH2; thioether N-14),470 nM
6,CC(C)C[C@@H]1NC(=O)[C@H](Cc2c[nH]c3ccccc23)NC(=O)[C@H](CC(=O)O)NC(=O)[C@H](Cc2ccc(OCC(=O)O)cc2)NC(=O)[C@H](CC(N)=O)NC(=O)CSC[C@@H](C(=O)N[C@@H](C)C(N)=O)NC(=O)[C@H](CO)NC(=O)[C@H](C(C)C)NC(=O)[C@H](CC(C)C)NC(=O)[C@H](CC(N)=O)NC(=O)[C@H]2CCCN2C(=O)[C@H](C)N(C)C(=O)[C@H](C(C)C)NC(=O)[C@H](Cc2ccc(-c3ccccc3)cc2)NC1=O [Example 1042] ({CH2CO}-NY(Carboxymethyl)DWL[Bip]V[NMeA][dP]NLVSCA-NH2; thioether N-14),70 nM
7,CC(C)C[C@@H]1NC(=O)[C@H](Cc2c[nH]c3ccccc23)NC(=O)[C@H](CC(=O)O)NC(=O)[C@H](Cc2ccc(O)cc2)NC(=O)[C@H](Cc2ccccc2)NC(=O)CSC[C@@H](C(=O)N[C@@H](C)C(N)=O)NC(=O)[C@H](CO)NC(=O)[C@H](C(C)C)NC(=O)[C@H](CC(C)C)NC(=O)[C@H](CC(N)=O)NC(=O)[C@H](Cc2ccccc2)N(C)C(=O)[C@H](C)N(C)C(=O)[C@H](CCCNC(=N)N)NC(=O)[C@H](Cc2ccc(-c3ccccc3)cc2)NC1=O [Example 1095] ({CH2CO}-FYDWL[Bip]R[NMeA][NMeF]NLVSCA-NH2; thioether N-14),280 nM
8,Cc1cccc(C[C@@H]2NC(=O)[C@H](CC(=O)O)NC(=O)[C@H](Cc3ccc(O)cc3)NC(=O)[C@H](Cc3ccccc3)NC(=O)CSC[C@@H](C(=O)N[C@@H](C)C(N)=O)NC(=O)[C@H](CO)NC(=O)[C@H](C(C)C)NC(=O)[C@H](CC(C)C)NC(=O)[C@H](CC(N)=O)NC(=O)CN(C)C(=O)[C@H](C)N(C)C(=O)[C@H](C(C)C)NC(=O)[C@H](Cc3ccc(-c4ccccc4)cc3)NC(=O)[C@H](CC(C)C)NC2=O)c1 [Example 1053] ({CH2CO}-FYD[Phe(3-Me)]L[Bip]V[NMeA][Sar]NLVSCA-NH2; thioether N-14),120 nM
9,CC(C)C[C@@H]1NC(=O)[C@H](CCCNC(=N)N)NC(=O)[C@H](Cc2ccccc2)N(C)C(=O)[C@H](C)N(C)C(=O)[C@H](CCCNC(=N)N)NC(=O)[C@H](Cc2ccc(-c3ccccc3)cc2)NC(=O)[C@H](C(C)C)NC(=O)[C@H](Cc2c[nH]c3ccccc23)NC(=O)[C@H](CC(=O)O)NC(=O)[C@H](Cc2ccc(O)cc2)NC(=O)[C@H](Cc2ccccc2)NC(=O)CSC[C@@H](C(=O)NCC(N)=O)NC(=O)[C@H](CO)NC(=O)[C@H](C(C)C)NC1=O [Example 1000] ({CH2CO}-FYDWV[Bip]R[NMeA][NMeF]RLVSCG-NH2; thioether N-14),260 nM
10,CC(C)C[C@@H]1NC(=O)[C@H](Cc2c[nH]c3ccccc23)NC(=O)[C@H](CC(=O)O)NC(=O)[C@H](Cc2ccncc2)NC(=O)[C@H](Cc2ccccc2)NC(=O)CSC[C@@H](C(=O)N[C@@H](C)C(N)=O)NC(=O)[C@H](CO)NC(=O)[C@H](C(C)C)NC(=O)[C@H](CC(C)C)NC(=O)[C@H](CC(N)=O)NC(=O)CN(C)C(=O)[C@H](C)N(C)C(=O)[C@H](C(C)C)NC(=O)[C@H](Cc2ccc(-c3ccccc3)cc2)NC1=O [Example 1064] ({CH2CO}-F[4Pal]DWL[Bip]V[NMeA][Sar]NLVSCA-NH2; thioether N-14),160 nM
11,CC(C)C[C@@H]1NC(=O)CSC[C@@H](C(=O)NCC(N)=O)NC(=O)[C@H](CO)NC(=O)[C@H](C(C)C)NC(=O)[C@H](CC(C)C)NC(=O)[C@H](CCCNC(=N)N)NC(=O)[C@H](Cc2ccccc2)N(C)C(=O)[C@H](C)N(C)C(=O)[C@H](CCCN)NC(=O)[C@H](Cc2ccc(-c3ccccc3)cc2)NC(=O)[C@H](C(C)C)NC(=O)[C@H](Cc2c[nH]c3ccccc23)NC(=O)[C@H](CC(=O)O)NC(=O)[C@H](Cc2ccc(O)cc2)NC1=O [Example 1290] ({CH2CO}-LYDWV[Bip][Orn][NMeA][NMeF]RLVSCG-NH2; thioether N-14),140 nM
